Measured values reported in paper PMC6389703, “Identification of Biologically Active Ganoderma lucidum Compounds and Synthesis of Improved Derivatives That Confer Anti-cancer Activities in vitro” (Frontiers in Pharmacology, 2019).

Key:
MDA-MB-231 cells [1] = test: ROS measurement (CellROX green), MDA-MB-231; type: cell-based, human; details: EP 20 μM, 1 h
Method: SUM-149 or MDA-MB-231 were plated in 96-well plates at a density of 2 × 10^4 and 1 × 10^4 cells/well, respectively, in black 96-well clear bottom tissue culture plates and incubated for 24 h at 37°C. The mRuby-Mito-7 plasmid was obtained from Addgene (#55874 from Michael Davidson). A stable clone of MCF-7 was generated by using Fugene 6 (Roche) to transfect cells (2 × 10^5) with plasmid (2.0 μg) under neomycin selection. A stable cell line was selected by using G418 (300 μg/mL) for 2 weeks, sorted by flow cytometry, and maintained under G418 thereafter. Transfected MCF-7 cells were plated at a density of 2 × 10^4 cells/well in black 96-well clear bottom tissue culture plates and incubated overnight at 37°C. To test for ROS formation and remove background, cells were replenished with fresh PBS with 2% FBS and treated with the desired compounds for 1 h at 37°C. DMSO (0.5%) was used as a negative control, while Menadione (Mena, at 10 μM) or t-Butyl hydroperoxide (TBHP) at 100 μM final concentration were used as a positive control. To evaluate the compounds’ effects on ROS formation inhibition, the free radical scavenger N-acetyl cysteine (NAC) was used. […] Fluorescence intensity was measured in a Clariostar® plate reader (BMG LABTECH, Cary, NC, United States) at 535 nm.

SUM-149 cells [2] = test: Annexin V/7-AAD apoptosis detection; type: cell-based, human; details: 48 h
Method: SUM-149 cells (5 × 10^5) were seeded and treated either with vehicle (0.1% DMSO) or with 20 μM of EP or with puromycin (200 ng/mL) as positive control for 48 h. After treatment floating cells were collected, and all cells were harvested and counted. Treated cells were analyzed for cell death by using the FITC Annexin-V/7AAD Apoptosis detection kit (product #640922, Biolegend, San Diego, CA, United States) according to the manufacturer’s instructions. Briefly, cells were resuspended in Annexin Binding Buffer, stained with Annexin V-FITC and/or 7-AAD, and incubated for 30 min at 4°C. Data were acquired on a BD FACS Canto II cytometer (BD Biosciences, San José, CA, United States) and analyzed by using FlowJo software (V10, FlowJo, LLC, Ashland, OR, United States).

SUM-149 cells [3] = test: ApoTox-Glo Triplex assay, SUM-149; type: cell-based, human; details: SUM-149, 24 h
Method: Cells (9.5 × 10^4/well in 75 μL of fresh medium) were dispensed in 96-well black flat bottom (8807BC, Corning) plates. The cells were incubated for 12 h at 37°C and then treated with compounds (25 μL) for 24 h. DMSO was used as a negative control, and staurosporine was used as the positive control. […] Then, the Caspase-Glo® 3/7 Reagent was added; plates were mixed briefly by orbital shaking (300-500 rpm for ∼30 s), followed by an additional 30 min incubation at RT. Then luminescence, which correlates with caspase 3/7 activation, was recorded with a plate reader to […] apoptosis induction.

KOPN-8 cells = test: Cell Titer Glo viability assay, KOPN-8; type: cell-based; details: Homo sapiens, 72-h treatment
Method: (§1) Either 1 × 10^3–4.8 × 10^3 or 4 × 10^2–1.2 × 10^3 cells were seeded to each well of 96- or 384-well white polystyrene flat-bottomed plates (3610 or 8804BC, Corning) in 100 μL or 30 μL media per well, respectively. The concentrations used were experimentally determined to ensure logarithmic growth during the duration of the experiment and prevent adverse effects on cell growth by DMSO exposure. The plates were incubated at 37°C in 5% CO2 for 24 h before treatment. Stock solutions of test compounds (10 mM in DMSO) in nine 3-fold serial dilutions were dispensed via pintool (Biomek). The final concentration of DMSO was 0.3% (v/v) in each well. […] Luminescence was recorded in an Envision plate reader (PerkinElmer).
(§2) For the CTG assay, 3 or 4 replicate assays were conducted for each experimental condition, and a minimum of 3 independent experiments were conducted for cellular assays. The mean luminescence of each experimental treatment group was normalized as a percentage of the mean intensity of untreated controls. EC50 values (μM) were calculated by Pipeline Pilot Software (Accelrys, Enterprise Platform, San Diego, CA, United States). EC50 values (μM) from the viability assay were calculated from dose response curve-fitting via non-linear regression by using GraphPad Prism (Version 7.0, San Diego, CA, United States). […]

[4] = system: additional cancer cellular models; test: Cell viability, additional cancer cellular models; type: cell-based; details: Supplementary Figure S2
Method: as §1, §2

MDA-MB-231 cells [5] = test: Cell viability assay, MDA-MB-231; type: cell-based; details: Homo sapiens, Figure 4E
Method: as §1, with “(PerkinElmer). […]” for “(PerkinElmer).”
as §2

SUM-149 cells [6] = test: Colony formation assay; type: cell-based, human; details: 72 h treatment, 5–40 μM, 10 days culture
Method: SUM-149 cells (1.5 × 10^6 cells/well) were plated on a 6-well plate. Two days later, cell media was changed to 5% FBS, and cells were incubated at 37°C in a 5% CO2 atmosphere for 1 h before vehicle (0.1% DMSO) or EP (5–40 μM) was added. After 72 h of treatment, cells were trypsinized and reseeded at 200 cells/mL per well in 24-well plates. After 10 days of culture, colonies were visualized by crystal violet staining, and the colony numbers were counted under a microscope.

How did the “ROS formation (fold)” value (MDA-MB-231 cells [1]) turn out when `CC(C)[C@@H](C)/C=C/[C@@H](C)[C@H]1CC[C@@H]2[C@]1(C)CC[C@H]1[C@]23C=C[C@]2(C[C@@H](O)CC[C@]12C)OO3` [EP, ergosterol peroxide] was run?
Its value is “twofold”.

And the Early apoptotic cells (SUM-149 cells [2]; 20μM)?
The Early apoptotic cells was 50.1%.

What about the Late apoptotic cells (SUM-149 cells [2]; 20μM) of the same compound?
Its Late apoptotic cells is 3.2%.

What about the Live cells (SUM-149 cells [2]; 20μM) of the same compound?
Its Live cells is 45.9%.

And the “decrease of live cells (Annexin-, 7AAD-)” value (SUM-149 cells [2]; vs vehicle)?
The value was about 15%.

What about the “caspase 3/7 activity” value (SUM-149 cells [3]) of the same compound?
Its value is “increase caspase 3/7 activity”.

What about the “viability (GF-AFC)” value (SUM-149 cells [3]) of the same compound?
The value was “decrease viability”.

What about the EC50 (KOPN-8 cells) of the same compound?
The EC50 was 22.4 µM.

What about the EC50 [4] of the same compound?
Its EC50 is 7 to 22 µM.

What about the EC50 (MDA-MB-231 cells [5]) of the same compound?
The EC50 was 19 µM.

What about the “number and size of colonies formed” value (SUM-149 cells [6]) of the same compound?
The value was “concentration-dependent decrease”.
